Starred links: 1 amine or outer side, 2 acyl side, 3 side chain; linkers in the order of their positions; H or OH if unused. Positions of bridges follow the written chain, without caps; N, C: chain ends. Non-standard residues stand in square brackets, D forms with d. Residues, ends and D or L forms follow the SMILES beside them. *: point of attachment. X9 = COc1ccc(Cn2cnc(C[C@H](N[*:1])C(=O)[*:2])c2)cc1; Phe(3,4-Cl2) = N[C@@H](Cc1ccc(Cl)c(Cl)c1)C(=O)O; Phe(2,4-Cl2) = N[C@@H](Cc1ccc(Cl)cc1Cl)C(=O)O; NMe2Phe = CN(C)[C@@H](Cc1ccccc1)C(=O)*; Phe(4-F) = N[C@@H](Cc1ccc(F)cc1)C(=O)O; 1Nal = N[C@@H](Cc1cccc2ccccc12)C(=O)O; Phe(2-F) = N[C@@H](Cc1ccccc1F)C(=O)O; Bta = N[C@@H](Cc1csc2ccccc12)C(=O)O; NMeF = CN[C@@H](Cc1ccccc1)C(=O)O; d(hLeu) = CC(C)CC[C@@H](N)C(=O)O; 4Pal = N[C@@H](Cc1ccncc1)C(=O)O; β3hF = N[C@H](CC(=O)O)Cc1ccccc1; 2Thi = N[C@@H](Cc1cccs1)C(=O)O; dCha = N[C@H](CC1CCCCC1)C(=O)O; Nicotinoyl = O=C(c1cccnc1)*; Pip = O=C(O)[C@@H]1CCCCN1; Nle = CCCC[C@H](N)C(=O)O; Orn = NCCC[C@H](N)C(=O)O; Aze = O=C(O)[C@@H]1CCN1; Dab = NCC[C@H](N)C(=O)O; Piv = CC(C)(C)C(=O)*; X17 = c1cc(CC*)ccn1
target: T1, human C5aR(CD88) (Homo sapiens, UniProt P21730); assay: Determination of the IC50 value in an enzyme release assay (functional assay, antagonistic activity); type: cell-based; details: antagonistic activity; IC50 group in enzyme release assay, RBL cells expressing human C5aR(CD88); read-out: activity (group)
T1 construct: expressed in transfected cells; host or cells: rat basophilic leukemia cells (RBL)
T1 sequence (P21730 1-350): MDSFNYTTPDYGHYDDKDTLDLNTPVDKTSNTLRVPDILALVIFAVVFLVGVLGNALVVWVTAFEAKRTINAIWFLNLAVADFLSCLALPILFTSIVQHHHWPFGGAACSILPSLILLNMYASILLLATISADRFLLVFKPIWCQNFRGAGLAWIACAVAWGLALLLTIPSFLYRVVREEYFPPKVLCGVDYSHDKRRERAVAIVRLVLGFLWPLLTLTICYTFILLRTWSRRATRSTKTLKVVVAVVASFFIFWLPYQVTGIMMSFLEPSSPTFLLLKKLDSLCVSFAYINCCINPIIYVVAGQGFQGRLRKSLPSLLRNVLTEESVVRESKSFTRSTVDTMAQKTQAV

Structure (SMILES)	IC50
CC(=O)N(C)[C@@H](Cc1ccccc1)C(=O)N[C@@H](CCCN)C(=O)N1CCC[C@H]1C(=O)N[C@H](CC1CCCCC1)C(=O)N[C@@H](Cc1csc2ccccc12)C(=O)N[C@@H](Cc1ccccc1)C(N)=O [Compound 165, Ac-NMF-Orn-Pro-cha-Bta-Phe-NH2] (Ac-[NMeF][Orn]P[dCha][Bta]F-NH2)	50 to 200 nM
CC(=O)N[C@@H](Cc1ccccc1)C(=O)N[C@@H](CCCN)C(=O)N1CCC[C@H]1C(=O)N[C@H](CCC(C)C)C(=O)N[C@@H](Cc1ccc(Cl)cc1Cl)C(=O)N[C@@H](Cc1ccccc1)C(N)=O [Compound 286, Ac-Phe-Orn-Pro-hle-Egy-Phe-NH2] (Ac-F[Orn]P[d(hLeu)][Phe(2,4-Cl2)]F-NH2)	50 to 200 nM
CC(C)(C)C(=O)N[C@@H](Cc1ccccc1)C(=O)N[C@@H](CCCN)C(=O)N1CCC[C@H]1C(=O)N[C@H](CC1CCCCC1)C(=O)N[C@@H](Cc1csc2ccccc12)C(=O)N[C@@H](Cc1ccccc1)C(N)=O [Compound 134, ^tBu-CO-Phe-Orn-Pro-cha-Bta-Phe-NH2] (Piv-F[Orn]P[dCha][Bta]F-NH2)	50 to 200 nM
CC(=O)N[C@@H](CCCN)C(=O)N[C@@H](Cc1ccccc1)C(=O)N[C@@H](CCCN)C(=O)N1CC[C@H]1C(=O)N[C@H](CC1CCCCC1)C(=O)N[C@@H](Cc1csc2ccccc12)C(=O)N[C@@H](Cc1ccccc1)C(N)=O [Compound 168, Ac-Orn-Phe-Orn-Aze-cha-Bta-Phe-NH2] (Ac-[Orn]F[Orn][Aze][dCha][Bta]F-NH2)	50 to 200 nM
CC(=O)N[C@@H](Cc1cccs1)C(=O)N[C@@H](CCCN)C(=O)N1CC[C@H]1C(=O)N[C@H](CC1CCCCC1)C(=O)N[C@@H](Cc1csc2ccccc12)C(=O)N[C@@H](Cc1ccccc1)C(N)=O [Compound 66, Ac-Thi-Orn-Aze-cha-Bta-Phe-NH2] (Ac-[2Thi][Orn][Aze][dCha][Bta]F-NH2)	10 to 20 nM
CC(=O)N[C@@H](Cc1ccccc1)C(=O)N[C@@H](CCCN)C(=O)N[C@@H](CO)C(=O)N[C@H](CC1CCCCC1)C(=O)N[C@@H](Cc1csc2ccccc12)C(=O)N[C@@H](Cc1ccccc1)C(N)=O [Compound 309, Ac-Phe-Orn-Ser-cha-Bta-Phe-NH2] (Ac-F[Orn]S[dCha][Bta]F-NH2)	20 to 50 nM
CC(=O)N[C@@H](Cc1ccccc1)C(=O)N[C@@H](CCCN)C(=O)N1CCC[C@H]1C(=O)N[C@H](CC1CCCCC1)C(=O)N[C@@H](Cc1csc2ccccc12)C(=O)N[C@H](CC(N)=O)Cc1ccccc1 [Compound 250, Ac-Phe-Orn-Pro-cha-Bta-Bhf-NH2] (Ac-F[Orn]P[dCha][Bta][β3hF]-NH2)	20 to 50 nM
CC(=O)N[C@@H](Cc1ccccc1)C(=O)N[C@@H](CCN)C(=O)N1CCC[C@H]1C(=O)N[C@H](CC1CCCCC1)C(=O)N[C@@H](Cc1csc2ccccc12)C(=O)N[C@@H](Cc1ccccc1)C(N)=O [Compound 215, Ac-Phe-Dab-Pro-cha-Bta-Phe-NH2] (Ac-F[Dab]P[dCha][Bta]F-NH2)	10 to 20 nM
CCSC[C@@H]1NC(=O)[C@H](Cc2c[nH]c3ccccc23)NC(=O)[C@@H](CC2CCCCC2)NC(=O)[C@@H]2CCCN2C(=O)[C@@H](NC(=O)[C@H](Cc2ccccc2)NC(C)=O)CCCNC1=O [Compound 34, Ac-Phe-[Orn-Pro-cha-Trp-Ebd]] (Ac-F[Orn]P[dCha]WC(Et); lactam 2-C)	20 to 50 nM
CC(=O)N[C@@H](Cc1ccccc1)C(=O)N[C@@H](CCCN)C(=O)N1CCC[C@H]1C(=O)N[C@H](CC1CCCCC1)C(=O)N[C@@H](Cc1cccc2ccccc12)C(=O)N[C@@H](Cc1ccccc1)C(N)=O [Compound 248, Ac-Phe-Orn-Pro-cha-1Ni-Phe-NH2] (Ac-F[Orn]P[dCha][1Nal]F-NH2)	50 to 200 nM
CC(=O)N[C@@H](Cc1ccccc1)C(=O)N[C@@H](CCCNC(=N)N)C(=O)N1CCC[C@H]1C(=O)N[C@H](CCC(C)C)C(=O)N[C@@H](Cc1csc2ccccc12)C(=O)N[C@@H](Cc1ccccc1)C(N)=O [Compound 207, Ac-Phe-Arg-Pro-hle-Bta-Phe-NH2] (Ac-FRP[d(hLeu)][Bta]F-NH2)	50 to 200 nM
CC(=O)N[C@@H](Cc1ccccc1)C(=O)N[C@@H](CCCN)C(=O)N1CCC[C@H]1C(=O)N[C@H](CCC(C)C)C(=O)N[C@@H](Cc1csc2ccccc12)C(=O)N[C@@H](Cc1ccc(O)cc1)C(N)=O [Compound 282, Ac-Phe-Orn-Pro-hle-Bta-Tyr-NH2] (Ac-F[Orn]P[d(hLeu)][Bta]Y-NH2)	50 to 200 nM
N[C@@H](Cc1ccccc1)C(=O)N[C@H]1CCCNC(=O)[C@H](Cc2ccccc2)NC(=O)[C@H](Cc2ccc(F)cc2)NC(=O)[C@@H](CC2CCCCC2)NC(=O)[C@@H]2CCCN2C1=O [Compound 375, H-Phe-[Orn-Pro-cha-Pff-Phe]] (H-F[Orn]P[dCha][Phe(4-F)]F; lactam 2-C)	50 to 200 nM
CCCC[C@@H]1NC(=O)[C@H](Cc2c[nH]c3ccccc23)NC(=O)[C@@H](CC2CCCCC2)NC(=O)[C@@H]2CCCN2C(=O)[C@@H](NC(=O)[C@H](Cc2ccccc2)NC(=O)CON=CC(O)C(O)C(O)C(O)CO)CCCNC1=O (single isomer, unassigned) [Compound 334, Fck-Phe-[Orn-Pro-cha-Trp-Nle]]	50 to 200 nM
CN(C)[C@@H](Cc1ccccc1)C(=O)N[C@@H](CCCN)C(=O)N1CCC[C@H]1C(=O)N[C@H](CC1CCCCC1)C(=O)N[C@@H](Cc1c[nH]c2ccccc12)C(=O)N[C@@H](Cc1ccccc1)C(N)=O [Compound 69, Me2-Phe-Orn-Pro-cha-Trp-Phe-NH2] (NMe2Phe-[Orn]P[dCha]WF-NH2)	50 to 200 nM
CC(=O)N[C@@H](Cc1ccccc1)C(=O)N[C@H]1CCCNC(=O)[C@H](Cc2ccncc2)NC(=O)[C@H](Cc2c[nH]c3ccccc23)NC(=O)[C@@H](CC2CCCCC2)NC(=O)[C@@H]2CCCN2C1=O [compound 23] (Ac-F[Orn]P[dCha]W[4Pal]; lactam 2-C)	50 to 200 nM
COc1ccc(Cn2cnc(C[C@@H]3NC(=O)[C@H](Cc4c[nH]c5ccccc45)NC(=O)[C@@H](CC4CCCCC4)NC(=O)[C@@H]4CCCN4C(=O)[C@@H](NC(=O)[C@H](Cc4ccccc4)NC(C)=O)CCCNC3=O)c2)cc1 [compound 26] (Ac-F[Orn]P[dCha]W[X9]; lactam 2-C)	200 to 2000 nM
CCCC[C@@H]1NC(=O)[C@H](Cc2c[nH]c3ccccc23)NC(=O)[C@@H](CC2CCCCC2)NC(=O)[C@@H]2CCCN2C(=O)[C@@H](NC(=O)[C@H](Cc2ccccc2)NC(=O)c2cccnc2)CCCNC1=O [Compound 328, Fbn-Phe-[Orn-Pro-cha-Trp-Nle]] (Nicotinoyl-F[Orn]P[dCha]W[Nle]; lactam 2-C)	10 to 20 nM
CC(=O)N[C@@H](Cc1ccccc1)C(=O)N[C@@H](CCCN)C(=O)N1CCC[C@H]1C(=O)N[C@H](CCC(C)C)C(=O)N[C@@H](Cc1csc2ccccc12)C(=O)N[C@@H](Cc1ccc(Cl)c(Cl)c1)C(N)=O [Compound 276, Ac-Phe-Orn-Pro-hle-Bta-Eaa-NH2] (Ac-F[Orn]P[d(hLeu)][Bta][Phe(3,4-Cl2)]-NH2)	50 to 200 nM
CC(=O)N[C@@H](Cc1ccccc1)C(=O)N[C@@H](CCCN)C(=O)N1CCC[C@H]1C(=O)N[C@H](CCC(C)C)C(=O)N[C@@H](Cc1csc2ccccc12)C(=O)N[C@H](Cc1ccccc1)C(=O)O [Compound 281, Ac-Phe-Orn-Pro-hle-Bta-phe-OH] (Ac-F[Orn]P[d(hLeu)][Bta][dF]-OH)	50 to 200 nM
CC(=O)N[C@@H](Cc1ccc(F)cc1)C(=O)N[C@@H](CCCN)C(=O)N1CCC[C@H]1C(=O)N[C@H](CC1CCCCC1)C(=O)N[C@@H](Cc1csc2ccccc12)C(=O)N[C@@H](Cc1ccccc1)C(N)=O [Compound 169, Ac-Pff-Orn-Pro-cha-Bta-Phe-NH2] (Ac-[Phe(4-F)][Orn]P[dCha][Bta]F-NH2)	20 to 50 nM
CC(=O)N[C@@H](Cc1ccccc1)C(=O)N[C@@H](CCCN)C(=O)N1CCCC[C@H]1C(=O)N[C@H](CC1CCCCC1)C(=O)N[C@@H](Cc1c[nH]c2ccccc12)C(=O)N[C@@H](Cc1ccccc1)C(N)=O [Compound 92, Ac-Phe-Orn-Pip-cha-Trp-Phe-NH2] (Ac-F[Orn][Pip][dCha]WF-NH2)	50 to 200 nM
CC(=O)N[C@@H](Cc1ccccc1)C(=O)N[C@H]1CCCNC(=O)[C@H](CSCCc2ccncc2)NC(=O)[C@H](Cc2c[nH]c3ccccc23)NC(=O)[C@@H](CC2CCCCC2)NC(=O)[C@@H]2CCCN2C1=O [compound 19] (Ac-F[Orn]P[dCha]WC(X17); lactam 2-C)	200 to 2000 nM
CC(=O)N[C@@H](Cc1ccccc1F)C(=O)N[C@@H](CCCN)C(=O)N1CCC[C@H]1C(=O)N[C@H](CCC(C)C)C(=O)N[C@@H](Cc1csc2ccccc12)C(=O)N[C@@H](Cc1ccccc1)C(N)=O [Compound 167, Ac-Off-Orn-Pro-hle-Bta-Phe-NH2] (Ac-[Phe(2-F)][Orn]P[d(hLeu)][Bta]F-NH2)	20 to 50 nM

same assay, conditions: functional assay of example 11; noteworthy = IC50 less than 200 nM

Structure (SMILES)	inhibitory activity (in words)
CCSC[C@@H]1NC(=O)[C@H](Cc2c[nH]c3ccccc23)NC(=O)[C@@H](CC2CCCCC2)NC(=O)[C@@H]2CCCN2C(=O)[C@@H](NC(=O)[C@H](Cc2ccccc2)NC(C)=O)CCCNC1=O [Compound 34, Ac-Phe-[Orn-Pro-cha-Trp-Ebd]] (Ac-F[Orn]P[dCha]WC(Et); lactam 2-C)	without significant loss of activity
CC(=O)N[C@@H](Cc1ccccc1)C(=O)N[C@H]1CCCNC(=O)[C@H](Cc2ccccc2)NC(=O)[C@H](Cc2c[nH]c3ccccc23)NC(=O)[C@@H](CC2CCCCC2)NC(=O)[C@H](CO)NC1=O [Ac-Phe-[Orn-Ser-cha-Trp-Phe]] (Ac-F[Orn]S[dCha]WF; lactam 2-C)	noteworthy inhibitory activity

same assay, conditions: functional assay of example 11; noteworthy = IC50 less than 200 nM; listed as Ac-Phe-[Orn-Pro-cha-Trp-Ebd]

Structure (SMILES)	inhibitory activity (in words)
CCSC[C@@H]1NC(=O)[C@H](Cc2c[nH]c3ccccc23)NC(=O)[C@@H](CC2CCCCC2)NC(=O)[C@@H]2CCCN2C(=O)[C@@H](NC(=O)[C@H](Cc2ccccc2)NC(C)=O)CCCNC1=O [Compound 34, Ac-Phe-[Orn-Pro-cha-Trp-Ebd]] (Ac-F[Orn]P[dCha]WC(Et); lactam 2-C)	noteworthy inhibitory activity
